Results taken from the supplement of paper PMC8092582.
Where a name gives a salt, the structure may show the parent alone. ± gives the standard deviation of the averaged measurements.

System: HeLa
Assay: cell viability (CellTiter-Glo) relative to median of lowest-dilution wells of all drugs (fraction); higher = more viable cells
Procedure: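 HeLa control and CRISPR DDX11 knockout cells were seeded in 384-well plates and incubated for 72 h with each of 64 […] drugs at six concentrations. Viability was read with CellTiter-Glo and normalised to the median of the lowest (6th) dilution wells of all drugs. Two biological replicates (BR1, BR2) are averaged; the concentration unit is not stated.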

[1] = drug concentration (unit not stated): 0.01, genotype: DDX11 knockout
[2] = drug concentration (unit not stated): 0.01, genotype: control (DDX11 wild type)
[3] = drug concentration (unit not stated): 0.04, genotype: DDX11 knockout
[4] = drug concentration (unit not stated): 0.04, genotype: control (DDX11 wild type)
[5] = drug concentration (unit not stated): 0.12, genotype: DDX11 knockout
[6] = drug concentration (unit not stated): 0.12, genotype: control (DDX11 wild type)
[7] = drug concentration (unit not stated): 0.37, genotype: DDX11 knockout
[8] = drug concentration (unit not stated): 0.37, genotype: control (DDX11 wild type)
[9] = drug concentration (unit not stated): 1.11, genotype: DDX11 knockout
[10] = drug concentration (unit not stated): 1.11, genotype: control (DDX11 wild type)
[11] = drug concentration (unit not stated): 3.33, genotype: DDX11 knockout
[12] = drug concentration (unit not stated): 3.33, genotype: control (DDX11 wild type)
[13] = drug concentration (unit not stated): 10, genotype: DDX11 knockout
[14] = drug concentration (unit not stated): 10, genotype: control (DDX11 wild type)
[15] = drug concentration (unit not stated): 30, genotype: DDX11 knockout
[16] = drug concentration (unit not stated): 30, genotype: control (DDX11 wild type)

| Structure (SMILES) | cell viability [1] | cell viability [2] | cell viability [3] | cell viability [4] | cell viability [5] | cell viability [6] | cell viability [7] | cell viability [8] | cell viability [9] | cell viability [10] | cell viability [11] | cell viability [12] | cell viability [13] | cell viability [14] | cell viability [15] | cell viability [16] |
| --- | --- | --- | --- | --- | --- | --- | --- | --- | --- | --- | --- | --- | --- | --- | --- | --- |
| Nc1nc(Cl)nc2c1ncn2[C@@H]1O[C@H](CO)[C@@H](O)[C@@H]1F [Clofarabine] | 1.03 ± 0.061 | 1.04 ± 0.013 | 0.967 ± 0.12 | 0.999 ± 0.11 | 0.699 ± 0.46 | 0.887 ± 0.6 | 0.177 ± 0.19 | 0.181 ± 0.2 | 0.0355 ± 0.013 | 0.0535 ± 0.038 |  |  |  |  |  |  |
| O=c1[nH]c(=O)n([C@H]2C[C@H](O)[C@@H](CO)O2)cc1F [Floxuridine] | 1.04 ± 0.047 | 1.2 ± 0.21 | 1 ± 0.05 | 1.1 ± 0.054 | 0.961 ± 0.15 | 0.998 ± 0.019 | 1.01 ± 0.13 | 0.952 ± 0.19 | 0.858 ± 0.19 | 0.874 ± 0.31 | 0.76 ± 0.43 | 0.786 ± 0.51 |  |  |  |  |
| Nc1nc2[nH]cnc2c(=S)[nH]1 [Thioguanine] |  |  | 1.03 ± 0.045 | 1.04 ± 0.04 | 0.992 ± 0.017 | 0.971 ± 0.044 | 0.94 ± 0.039 | 0.762 ± 0.065 | 0.731 ± 0.15 | 0.428 ± 0.15 | 0.536 ± 0.12 | 0.433 ± 0.21 | 0.239 ± 0.025 | 0.387 ± 0.2 |  |  |
| COc1ccc(C2=N[C@@H](c3ccc(Cl)cc3)[C@@H](c3ccc(Cl)cc3)N2C(=O)N2CCNC(=O)C2)c(OC(C)C)c1 [Nutlin-3] |  |  | 0.977 ± 0.022 | 0.944 ± 0.013 | 0.981 ± 0.057 | 0.9784 ± 0.0054 | 0.983 ± 0.047 | 1.029 ± 0.0079 | 0.9903 ± 0.0028 | 0.956 ± 0.0068 | 0.965 ± 0.026 | 1.035 ± 0.0094 | 0.9631 ± 0.0059 | 1.06 ± 0.096 |  |  |
| Nc1ncn([C@H]2C[C@H](O)[C@@H](CO)O2)c(=O)n1 [Decitabine] |  |  | 1.062 ± 0.0019 | 1.0513 ± 0.0006 | 1.01 ± 0.16 | 1.06 ± 0.019 | 1.03 ± 0.12 | 1.03 ± 0.043 | 0.973 ± 0.012 | 1.05 ± 0.054 | 0.975 ± 0.099 | 1.1 ± 0.097 | 0.867 ± 0.018 | 1.11 ± 0.086 |  |  |
| CC(C)C[C@H](NC(=O)[C@H](Cc1ccccc1)NC(=O)c1cnccn1)B(O)O [Bortezomib (Velcade)] | 0.863 ± 0.14 | 0.807 ± 0.22 | 0.215 ± 0.22 | 0.169 ± 0.17 | 0.0261 ± 0.012 | 0.0235 ± 0.00034 | 0.0196 ± 0.002 | 0.0189 ± 0.00099 | 0.0168 ± 0.0011 | 0.0168 ± 0.0026 | 0.0124 ± 0.00057 | 0.0137 ± 0.003 |  |  |  |  |
| CC[C@]1(O)C[C@@H]2CN(CCc3c([nH]c4ccccc34)[C@@](C(=O)OC)(c3cc4c(cc3OC)N(C)[C@H]3[C@@](O)(C(=O)OC)[C@H](OC(C)=O)[C@]5(CC)C=CCN6CC[C@]43[C@@H]65)C2)C1 [Vinblastine] | 0.751 ± 0.37 | 0.802 ± 0.21 | 0.538 ± 0.36 | 0.799 ± 0.44 | 0.374 ± 0.092 | 0.441 ± 0.2 | 0.392 ± 0.0058 | 0.31 ± 0.042 | 0.3923 ± 0.00082 | 0.355 ± 0.12 | 0.401 ± 0.042 | 0.359 ± 0.089 |  |  |  |  |
| CNC(=O)c1cccc(-c2ccc3c(N4CCOC[C@@H]4C)nc(N4CCOC[C@@H]4C)nc3n2)c1 [Vistusertib (AZD2014)] |  |  | 0.902 ± 0.082 | 0.938 ± 0.15 | 0.777 ± 0.13 | 0.973 ± 0.3 | 0.668 ± 0.16 | 0.917 ± 0.29 | 0.449 ± 0.081 | 0.637 ± 0.16 | 0.356 ± 0.03 | 0.533 ± 0.17 | 0.344 ± 0.048 | 0.436 ± 0.17 |  |  |
| O=C(O)CCCc1ccc(N(CCCl)CCCl)cc1 [Chlorambucil] |  |  | 1.061 ± 0.009 | 0.974 ± 0.056 | 1.02 ± 0.062 | 0.9875 ± 0.0097 | 1.05 ± 0.11 | 1.02 ± 0.012 | 1.06 ± 0.057 | 0.999 ± 0.021 | 1.07 ± 0.042 | 1.05 ± 0.082 | 0.925 ± 0.1 | 1.03 ± 0.051 |  |  |
| Cc1sc2c(c1C)C(c1ccc(Cl)cc1)=N[C@@H](CC(=O)OC(C)(C)C)c1nnc(C)n1-2 [(+)-JQ-1] |  |  | 1.02 ± 0.059 | 0.977 ± 0.047 | 0.93 ± 0.14 | 0.962 ± 0.17 | 0.849 ± 0.19 | 0.98 ± 0.49 | 0.671 ± 0.033 | 0.827 ± 0.26 | 0.5507 ± 0.0013 | 0.757 ± 0.2 | 0.5098 ± 0.0035 | 0.637 ± 0.18 |  |  |
| O=C(O)C1(C(=O)O)CCC1.[NH2-].[NH2-].[Pt+2] [Carboplatin] |  |  |  |  | 0.981 ± 0.017 | 1.013 ± 0.0026 | 0.909 ± 0.031 | 1.03 ± 0.039 | 0.829 ± 0.04 | 1.05 ± 0.14 | 0.425 ± 0.056 | 0.904 ± 0.45 | 0.165 ± 0.021 | 0.331 ± 0.16 | 0.0472 ± 0.0054 | 0.0483 ± 0.0055 |
| COc1cccc2c1C(=O)c1c(O)c3c(c(O)c1C2=O)C[C@@](O)(C(=O)CO)C[C@@H]3O[C@H]1C[C@H](N)[C@@H](O)[C@H](C)O1 [Epirubicin Hydrochloride] | 1.02 ± 0.021 | 1.04 ± 0.05 | 0.89 ± 0.23 | 0.967 ± 0.084 | 0.596 ± 0.37 | 0.902 ± 0.42 | 0.304 ± 0.39 | 0.55 ± 0.72 | 0.0326 ± 0.0056 | 0.164 ± 0.21 | 0.0161 ± 0.003 | 0.0225 ± 0.011 |  |  |  |  |
| CCCCCCNC(=O)n1cc(F)c(=O)[nH]c1=O [Carmofur] |  |  | 1.01 ± 0.038 | 0.998 ± 0.026 | 1.02 ± 0.019 | 1.007 ± 0.0099 | 1.09 ± 0.081 | 1.05 ± 0.044 | 1.02 ± 0.093 | 1.07 ± 0.22 | 0.956 ± 0.24 | 1.03 ± 0.46 | 0.857 ± 0.2 | 0.924 ± 0.39 |  |  |
| CC[C@H](CO)Nc1nc(NCc2ccccc2)c2ncn(C(C)C)c2n1 [Seliciclib (Roscovitine)] |  |  |  |  | 0.992 ± 0.018 | 0.946 ± 0.036 | 1.008 ± 0.0031 | 0.98 ± 0.018 | 1.04 ± 0.021 | 1 ± 0.033 | 1 ± 0.012 | 0.994 ± 0.038 | 1.01 ± 0.051 | 1.028 ± 0.008 | 0.577 ± 0.26 | 0.893 ± 0.38 |
| O=C(Nc1c[nH]nc1-c1nc2ccc(CN3CCOCC3)cc2[nH]1)NC1CC1 [AT9283] | 1.03 ± 0.023 | 0.988 ± 0.066 | 0.94 ± 0.015 | 0.939 ± 0.053 | 1.07 ± 0.076 | 1 ± 0.042 | 1.04 ± 0.046 | 1.07 ± 0.069 | 0.769 ± 0.4 | 0.799 ± 0.063 | 0.469 ± 0.41 | 0.504 ± 0.12 |  |  |  |  |
| CCN(CCO)CCCOc1ccc2c(Nc3cc(CC(=O)Nc4cccc(F)c4)[nH]n3)ncnc2c1 [AZD1152-HQPA (Barasertib)] |  |  | 0.927 ± 0.032 | 0.985 ± 0.18 | 0.912 ± 0.066 | 1.01 ± 0.22 | 0.883 ± 0.1 | 0.97 ± 0.28 | 0.888 ± 0.051 | 0.964 ± 0.21 | 0.831 ± 0.027 | 0.957 ± 0.25 | 0.813 ± 0.064 | 0.953 ± 0.23 |  |  |
| CCn1nc(C2CCN(C(=O)CCO)CC2)nc1-c1cnc(N)c(-c2nnc(C(C)(C)C)o2)n1 [AZD8835] |  |  | 1.08 ± 0.046 | 1.07 ± 0.014 | 0.987 ± 0.09 | 1.05 ± 0.027 | 0.908 ± 0.098 | 0.988 ± 0.078 | 0.876 ± 0.059 | 0.98 ± 0.12 | 0.803 ± 0.077 | 0.996 ± 0.057 | 0.785 ± 0.052 | 1.05 ± 0.03 |  |  |
| Nc1ncn([C@@H]2O[C@H](CO)[C@@H](O)[C@H]2O)c(=O)n1 [Azacitidine] |  |  | 1.03 ± 0.04 | 1.03 ± 0.044 | 1.03 ± 0.019 | 1.04 ± 0.0078 | 1.01 ± 0.046 | 1.05 ± 0.021 | 1.0191 ± 0.00066 | 1.05 ± 0.013 | 1.05 ± 0.063 | 1.03 ± 0.028 | 0.872 ± 0.12 | 0.89 ± 0.28 |  |  |
| CO[C@H]1C[C@@H]2CC[C@@H](C)[C@@](O)(O2)C(=O)C(=O)N2CCCC[C@H]2C(=O)O[C@H]([C@H](C)C[C@@H]2CC[C@@H](O)[C@H](OC)C2)CC(=O)[C@H](C)/C=C(\C)[C@@H](O)[C@@H](OC)C(=O)[C@H](C)C[C@H](C)/C=C/C=C/C=C/1C [Rapamycin (Sirolimus)] | 0.764 ± 0.11 | 0.916 ± 0.33 | 0.755 ± 0.13 | 0.883 ± 0.33 | 0.786 ± 0.18 | 0.887 ± 0.33 | 0.706 ± 0.11 | 0.903 ± 0.33 | 0.718 ± 0.11 | 0.878 ± 0.35 | 0.67 ± 0.12 | 0.84 ± 0.35 |  |  |  |  |
